Measured values taken from US20110091375A1, “USE OF THE COMBINATION COMPRISING TEMOZOLOMIDE AND TNF-ALPHA FOR TREATING GLIOBLASTOMA” (THE UNIVERSITY OF CHICAGO, priority 2004, published 2011).
Where a SMILES comes first, the peptide text is derived from it. The star is where a group is joined. Cbz = O=C(OCc1ccccc1)*; CH2F = FC*

Legend:
Type in all cases: cell-based, human
[1] = test system: U87 cells; assay: Measurement of superoxide production (hydroethidine oxidation); details: P<0.05 vs TNFα+TMZ
Procedure: U87 cells were plated at a density of 10^6 cells in flat-bottom 6-well tissue culture plates, incubated overnight and treated as indicated in the figure legend. Cells were then washed, resuspended in PBS and 1 μL of 10 mM hydroethidine (HE) per mL cell suspension (10 μM final concentration) was added and incubated for 5 m at 37° C. Cells were harvested and analyzed on a flow cytometer (FACSort; BD Biosciences) with excitation at 488 nm and emission collected using a 620-670 nm […] long-pass filter. Data was analyzed by Flowjo software.

[2] = test system: JNK; assay: JNK phosphorylation (activation), Western blot
Procedure: (§1) 20 μg of whole U87 cell (or nuclear) lysate was subjected to sodium dodecyl sulfate (SDS)-polyacrylamide gel electrophoresis (PAGE). Following electro-transfer, Immobilon-P membranes (Millipore Corp. Burlington, Mass., USA.) were probed with primary polyclonal antibody against IκBα, phospho-Ser32-IκBα, SAPK/JNK, phospho-Thr183/Tyr185-SAPK/JNK, p65, phospho-Ser536-p65 (Cell Signaling Technology Inc. Beverly, […]., USA) diluted 1:1000 overnight at 4° C. Anti-rabbit IgG HRP-linked secondary antibody (Cell Signaling Technology) was diluted 1:1000 in blocking buffer and applied for 1 h at room temperature. Immunoreactive bands were detected by SuperSignal enhanced chemiluminescence (ECL) (Pierce, Rockford, Ill., USA) and exposed to Kodak X-Omat film.

[3] = test system: U87 cells; assay: Flow cytometric analysis of apoptosis (fractional DNA content, annexin V binding)
Procedure: Fractional DNA content: U87 cells (10^5) were plated overnight at 37° C. with 5% CO2. The cells were then treated with TNFα (10 ng/mL) and/or TMZ (100 μM). At 72 h the cells were washed in PBS and fixed in ice-cold 70% (v/v) ethanol. The cells were washed twice and incubated in RNase (1 mg/mL) for 30 m at 37° C., then incubated in propidium iodide (PI) solution (100 ug/mL) for […] at 4° C. Flow cytometric analysis was performed on a FACSort instrument (Becton Dickinson Immunocytometry Systems, San Jose, Calif.), and the data were analyzed using the CellQuest software (Becton Dickinson).
Annexin V binding (van Engeland, M. et al. (1998) Cytometry 31(1):1-9): At 72 h cells were washed in PBS and incubated in the dark for 15 m with binding buffer containing 5 μl of Annexin V-FITC and 5 μl of PI (Annexin V-FITC apoptosis detection kit II). The data was analyzed by Flowjo analysis software (Tree Star Inc., Ashland, Oreg.).
Cells were either un-transfected or co-transfected with pRC-CMV-p65 or pRC-CMV in the presence of a GFP plasmid at a ratio of 4:1. Under these conditions, cells expressing GFP also expressed the co-transfected plasmid (Tang, F. et al. (2002) Mol Cell Biol 22:8571-8579). Cells were then left untreated or treated as described in the figure legends. At 72 h cells were washed in PBS and incubated in the dark for 15 m with binding buffer containing 5 μl of Annexin V-FITC and 5 μl of Propidium iodide (PI). In transfected cells, annexin V binding was assessed in GFP positive cells. Data was analyzed by Flowjo analysis software (Tree Star Inc., Ashland, Oreg., USA) as described in U.S. Provisional Application No. 60/604,251 (Yamini, B. et al. (2004) Cancer Res 64:6381-6384).

[4] = test system: U87 cells; assay: U87 cell viability (Trypan Blue dye exclusion, MTS)
Procedure: Trypan Blue dye exclusion method was employed. 10^4 U87 cells were plated and incubated at 37° C. overnight. Subsequently, the cells were contacted with media containing TNFα (10 ng/mL) and/or TMZ (100 μM), incubated for 3 h, and washed. […] All of the studies were performed in triplicate.

[5] = test system: IκBα; assay: TNFα-induced IκBα degradation and phosphorylation (Western blot / kinase assay); details: at 15 m, TNFα with or without TMZ pretreatment
Procedure: Cells were then washed with 10 mL ice-cold PBS, scraped from the dish, and pelleted by centrifugation at 1000 rpm for 5 m at 4° C. Cell pellets were resuspended in 400 μl of ice-cold buffer A (10 mM HEPES, pH 7.9; 10 mM KCl; 0.1 mM EDTA; 1 mM DTT; 0.5 mM phenylmethysulfonylfluoride [PMSF]; 1 μg/mL leupeptin; 5 μg/mL aprotinin) and allowed to swell on ice for 15 m. Following the addition of 25 μl of 10% NP-40, the suspension was vortexed for 10 s and centrifuged at 14,500 rpm for 1 m at 4° C. Nuclei were resuspended in 50 μl of ice-cold buffer B (20 mM HEPES, pH 7.9; […]; 1 mM EDTA; 1 mM DTT; 1 mM PMSF; 25% glycerol; 1 μg/mL leupeptin; 5 μg/mL aprotinin) and incubated on ice for 15 m. The nuclear suspension was then centrifuged at 14,500 rpm for 5 m at 4° C. and the supernatant containing the nuclear proteins was transferred to a clean tube. Protein concentrations for each sample were determined by the Bradford method (Bio-Rad, Richmond, Calif., USA) and were adjusted to 2 μg/μl by the addition of buffer B.
as §1
IκK was immunoprecipitated from treated U87 cell extracts with anti-IKKβ antibody, (Santa Cruz Biotechnology, Santa Cruz, Calif., USA). […] Kinase activity was quantified using a Phosphoimager and Equal protein loading determined by immunoblotting with anti-IκKβ antibody (Upstate USA, Charlottesville, Va., USA). […]

[6] = pretreatment before TMZ and TNFα

CC(=O)N[C@@H](CS)C(=O)O [NAC, N-acetylcystein]
increase in O2^.− induced by TMZ and TNFα, NAC pretreatment [1]: significantly inhibited | reduction of delayed JNK activation induced by combination TMZ and TNFα ([2]; U87, NAC pretreatment): 1.7 fold | transient JNK activation, NAC pretreatment ([2]; U87, TMZ and TNFα): without affecting | effect on cell death, pretreatment alone ([3]; U87): minimal effects | apoptosis induced by combination TMZ and TNFα, inhibitor pretreatment ([3]; annexin V binding, U87, P<0.01 vs TNFα+TMZ): significantly reversed

COC(=O)C[C@H](NC(=O)[C@H](C)NC(=O)[C@@H](NC(=O)OCc1ccccc1)C(C)C)C(=O)CF [zVAD] (Cbz-Val-Ala-Asp(OMe)-CH2F)
cytotoxicity induced by combined treatment with TMZ and TNFα, inhibitor pretreatment [4, 6]: completely reversed | JNK activation induced by TMZ and TNFα, inhibitor pretreatment [2, 6]: did not inhibit

TNFα
effect on U87 cell viability ([4]; 10 ng/mL TNFα and/or 100 μM TMZ): Minimal effects | JNK phosphorylation (activation) ([2]; glioma cells): transiently increased | degradation of IκBα [5]: complete degradation | U87 cell apoptosis (sub-G1 hypodiploid/apoptotic peak) ([3]; fractional DNA content, 72 h, TNFα 10 ng/mL and/or TMZ 100 μM): minimal effect
